# Numbered stars: 1 amine (or outer) side, 2 acyl side, 3 side chain; on linkers, the order of the positions; unused ones are H or OH. Square brackets hold non-standard residues; d marks the D form. Peptide text beside a SMILES is read from it. * marks the point of attachment. ξ: configuration not given here. X1 = N=C1NCC(C(O)C(N[*:1])C(=O)[*:2])N1C1OC(CO)C(O)C(O)C1O; ξEnduracididine(βξ-OH,4'ξ) = N=C1NCC(C(O)C(N)C(=O)O)N1; X2 = OCC1OC(OC2C(CO)OC(*)C(O)C2O)C(O)C(O)C1O; X5 = N=C1NCC(C(O)[C@@H](N[*:1])C(=O)[*:2])N1; X4 = N=C1NCC(C(O)[C@H](N[*:1])C(=O)[*:2])N1; Diphenylacetyl = O=C(C(c1ccccc1)c1ccccc1)*; ξPhe(βξ-Me) = CC(c1ccccc1)C(N)C(=O)O; Cha = N[C@@H](CC1CCCCC1)C(=O)O; dCha = N[C@H](CC1CCCCC1)C(=O)O
# Tests used:
# Assay in all cases: In vitro antibacterial evaluation: minimum inhibitory concentration (MIC), broth dilution method
# Type in all cases: cell-based
# Streptococcus sp. = test system: Streptococcus sp.
# Description: (§1) The minimum inhibitory concentration (MIC), the lowest concentration of the antibiotic which inhibits growth of the test organism, is determined by the broth dilution method using Muller-Hinton II […] (Baltimore Biological Laboratories) following the recommendations of the National Committee for Clinical Laboratory Standards [Methods for dilution antimicrobial susceptibility tests for bacteria that grow aerobically, approved standard M7-A2, National Committee for Clinical Laboratory Standards, Villanova, Pa].
# (§2) An inoculum level of 5×10^5 CFU/mL, and a range of antibiotic concentrations (64-0.06 μg/mL) is used. […] The test organisms include a spectrum of Gram-positive bacteria comprised of Staphylococcus sp., Streptococcus sp. and Enterococcus sp. These organisms include recent clinical isolates that are resistant to methicillin, penicillin and/or vancomycin.
# Enterococcus sp. = test system: Enterococcus sp.
# Description: as §1, §2
# Staphylococcus sp. = settings: for MIC Coagulase Negative Staphylococcus (ID-3941): strain ID-3941
# Description: as §1, §2
# [1] = Streptococcus pneumoniae (GC 4565), broth dilution, 18 hours at 35° C.
# [2] = broth dilution, 18 hours at 35° C.
# [3] = Streptococcus pneumoniae (GC 1894), broth dilution, 18 hours at 35° C.
# [4] = Streptococcus agalactiae (GC 4564), broth dilution, 18 hours at 35° C.
# [5] = Streptococcus pneumoniae (ATCC 6301), broth dilution, 18 hours at 35° C.
# [6] = Streptococcus pyogenes (GC 4563), broth dilution, 18 hours at 35° C.
# [7] = strain GC 4549, broth dilution, 18 hours at 35° C.
# [8] = broth dilution, inoculum 5×10^5 CFU/mL, 18 hours at 35° C.
smiles,measurement,setting,value
"CCC(=O)Nc1cc(CC2NC(=O)C(C(C)c3ccccc3)NC(=O)CNC(=O)C(CO)NC(=O)C(C(O)C3CNC(=N)N3C3OC(CO)C(O)C(O)C3O)NC(=O)C(C(O)C3CNC(=N)N3)NC2=O)ccc1O (stereo not drawn) [Example 14, Cyclo[glycyl-β-methylphenylalanyl-3-(propanamido)tyrosyl-3-(2-iminoimidazolidin-4-yl)seryl-3-(3-hexopyranosyl-2-iminoimidazolidin-4-yl)serylseryl]]",MIC Streptococcus pneumoniae (GC 4565),Streptococcus sp.; [1],64 µg/mL
same,MIC Streptococcus pneumoniae (GC 4565),Streptococcus sp.; [2],64 µg/mL
"CC(C)C(=O)Nc1cc(CC2NC(=O)C(C(C)c3ccccc3)NC(=O)CNC(=O)C(CO)NC(=O)C(C(O)C3CNC(=N)N3C3OC(CO)C(O)C(O)C3O)NC(=O)C(C(O)C3CNC(=N)N3)NC2=O)ccc1O (stereo not drawn) [Example 15, Cyclo[glycyl-β-methylphenylalanyl-3-(2-methylpropanamido)tyrosyl-3-(2-iminoimidazolidin-4-yl)seryl-3-(3-hexopyranosyl-2-iminoimidazolidin-4-yl)serylseryl]]",MIC Streptococcus pneumoniae (GC 4565),Streptococcus sp.; [1],64 µg/mL
same,MIC Streptococcus pneumoniae (GC 4565),Streptococcus sp.; [2],64 µg/mL
"Cc1ccc(OC(=O)Nc2cc(CC3NC(=O)C(C(C)c4ccccc4)NC(=O)CNC(=O)C(CO)NC(=O)C(C(O)C4CNC(=N)N4C4OC(CO)C(O)C(O)C4O)NC(=O)C(C(O)C4CNC(=N)N4)NC3=O)ccc2O)cc1 (stereo not drawn) [Example 19, Cyclo[glycyl-β-methylphenylalanyl-3-[[(4-methylphenoxy)carbonyl]amino]tyrosyl-3-(2-iminoimidazolidin-4-yl)seryl-3-(3-hexopyranosyl-2-iminoimidazolidin-4-yl)serylseryl]]",MIC Streptococcus pneumoniae (GC 1894),Streptococcus sp.; [3],64 µg/mL
same,MIC Streptococcus pneumoniae (GC 1894),Streptococcus sp.; [2],64 µg/mL
"CC(c1ccccc1)C1NC(=O)CNC(=O)C(CO)NC(=O)C(C(O)C2CNC(=N)N2C2OC(CO)C(O)C(O)C2O)NC(=O)C(C(O)C2CNC(=N)N2)NC(=O)C(Cc2ccc3oc(=O)[nH]c3c2)NC1=O (stereo not drawn) [Example 22, Cyclo[3-(2,3-dihydro-2-oxo-1,3-benzoxazol-5-yl)alanyl-3-(2-iminoimidazolidin-4-yl)seryl-3-(3-hexopyranosyl-2-iminoimidazolidin-4-yl)serylserylglycyl-β-methylphenylalanyl]]",MIC Enterococcus faecium (GC 4557),"Enterococcus sp.; Enterococcus faecium (GC 4557), broth dilution, 18 hours at 35° C.",64 µg/mL
same,MIC Enterococcus faecium (GC 4557),Enterococcus sp.; [2],64 µg/mL
same,MIC Streptococcus agalactiae (GC 4564),Streptococcus sp.; [4],32 µg/mL
same,MIC Streptococcus pneumoniae (ATCC 6301),Streptococcus sp.; [5],8 µg/mL
same,MIC Streptococcus pneumoniae (GC 1894),Streptococcus sp.; [3],8 µg/mL
same,MIC Streptococcus pneumoniae (GC 4565),Streptococcus sp.; [1],8 µg/mL
same,MIC Streptococcus pyogenes (GC 4563),Streptococcus sp.; [6],32 µg/mL
same,MIC Streptococcus agalactiae (GC 4564),Streptococcus sp.; [2],32 µg/mL
same,MIC Streptococcus pneumoniae (ATCC 6301),Streptococcus sp.; [2],8 µg/mL
same,MIC Streptococcus pneumoniae (GC 1894),Streptococcus sp.; [2],8 µg/mL
same,MIC Streptococcus pneumoniae (GC 4565),Streptococcus sp.; [2],8 µg/mL
same,MIC Streptococcus pyogenes (GC 4563),Streptococcus sp.; [2],32 µg/mL
"Cc1cccc(Oc2ccc(-c3nc4cc(C[C@@H]5NC(=O)[C@H](C(C)c6ccccc6)NC(=O)CNC(=O)[C@H](CO)NC(=O)[C@H](C(O)C6CNC(=N)N6)NC(=O)[C@H](C(O)C6CNC(=N)N6)NC5=O)ccc4o3)cc2)c1 (stereo partly drawn) [Example 41, Cyclo[3-[2-[4-(3-methylphenoxy)phenyl]benzoxazol-5-yl]alanyl-3-(2-iminoimidazolidin-4-yl)-seryl-3-(2-iminoimidazolidin-4-yl)serylserylglycyl-β-methylphenylalanyl]]",MIC Enterococcus faecalis (GC 6189),"Enterococcus sp.; Enterococcus faecalis (GC 6189), broth dilution, 18 hours at 35° C.",>64 µg/mL
same,MIC Staphylococcus haemolyticus (GC 4546),"Staphylococcus sp.; strain GC 4546, broth dilution, 18 hours at 35° C.",64 µg/mL
same,MIC Coagulase Negative Staphylococcus (GC 4547),"Staphylococcus sp.; strain GC 4547, broth dilution, 18 hours at 35° C.",64 µg/mL
same,MIC Coagulase Negative Staphylococcus (GC 4548),"Staphylococcus sp.; strain GC 4548, broth dilution, 18 hours at 35° C.",>64 µg/mL
same,MIC Coagulase Negative Staphylococcus (GC 4549),Staphylococcus sp.; [7],32 µg/mL
same,MIC Coagulase Negative Staphylococcus (GC 4551),"Staphylococcus sp.; strain GC 4551, broth dilution, 18 hours at 35° C.",64 µg/mL
"CC(C1CCCCC1)C1NC(=O)CNC(=O)C(CO)NC(=O)C(C(O)C2CNC(=N)N2C2OC(CO)C(O)C(O)C2O)NC(=O)C(C(O)C2CNC(=N)N2)NC(=O)C(CC2CCC(OC3OC(CO)C(OC4OC(CO)C(O)C(O)C4O)C(O)C3O)CC2)NC1=O (centres unmarked) [Example 53a, Cyclo[3-[4-[(4-O-hexopyranosylhexopyranosyl)oxy]cyclohexyl]alanyl-3-(2-iminoimidazolidin-4-yl)seryl-3-(3-hexopyranosyl-2-iminoimidazolidin-4-yl)serylserylglycyl-3-cyclohexyl-2-aminobutanoyl]]",MIC Streptococcus agalactiae (GC 4564),Streptococcus sp.; [4],64 µg/mL
same,MIC Streptococcus pneumoniae (ATCC 6301),Streptococcus sp.; [5],64 µg/mL
same,MIC Streptococcus pneumoniae (GC 1894),Streptococcus sp.; [3],32 µg/mL
same,MIC Streptococcus pneumoniae (GC 4565),Streptococcus sp.; [1],64 µg/mL
same,MIC Streptococcus pyogenes (GC 4563),Streptococcus sp.; [6],64 µg/mL
same,MIC Streptococcus agalactiae (GC 4564),Streptococcus sp.; [2],64 µg/mL
same,MIC Streptococcus pneumoniae (ATCC 6301),Streptococcus sp.; [2],64 µg/mL
same,MIC Streptococcus pneumoniae (GC 1894),Streptococcus sp.; [2],32 µg/mL
same,MIC Streptococcus pneumoniae (GC 4565),Streptococcus sp.; [2],64 µg/mL
same,MIC Streptococcus pyogenes (GC 4563),Streptococcus sp.; [2],64 µg/mL
"N=C1NCC(C(O)[C@@H]2NC(=O)[C@@H](CC3CCCCC3)NC(=O)[C@H](CC3CCCCC3)NC(=O)CNC(=O)[C@H](CO)NC(=O)[C@@H](C(O)C3CNC(=N)N3)NC2=O)N1 (some centres unmarked) [Example 58, Cyclo[3-cyclohexylalanyl-3-cyclohexylalanyl-3-(2-iminoimidazolidin-4-yl)seryl-3-(2-iminoimidazolidin-4-yl)-serylserylglycyl]] (cyclo([Cha][dCha][X4][X5]SG))",MIC Coagulase Negative Staphylococcus (GC 4547),Staphylococcus sp.; [2],4 µg/mL
same,MIC Coagulase Negative Staphylococcus (GC 4548),Staphylococcus sp.; [2],4 µg/mL
same,MIC Coagulase Negative Staphylococcus (GC 4549),Staphylococcus sp.; [2],4 µg/mL
same,MIC Coagulase Negative Staphylococcus (GC 4551),Staphylococcus sp.; [2],8 µg/mL
same,MIC Staphylococcus haemolyticus (GC 4546),Staphylococcus sp.; [2],4 µg/mL
same,MIC Staphylococcus aureus (ATCC 29213),"Staphylococcus sp.; strain ATCC 29213, broth dilution, 18 hours at 35° C.",16 µg/mL
same,MIC Staphylococcus aureus (GC 4542),"Staphylococcus sp.; strain GC 4542, broth dilution, 18 hours at 35° C.",16 µg/mL
same,MIC Staphylococcus aureus (GC 4544),"Staphylococcus sp.; strain GC 4544, broth dilution, 18 hours at 35° C.",16 µg/mL
"CC(c1ccccc1)C1NC(=O)CNC(=O)C(COC(=O)C(c2ccccc2)c2ccccc2)NC(=O)C(C(O)C2CNC(=N)N2C2OC(CO)C(O)C(O)C2O)NC(=O)C(C(O)C2CNC(=N)N2)NC(=O)C(Cc2ccc(OC3OC(CO)C(OC4OC(CO)C(O)C(O)C4O)C(O)C3O)cc2)NC1=O (stereo not drawn) [Example 96a, Cyclo[glycyl-β-methylphenylalanyl-O-[4-O-hexopyranosylhexopyranosyl)tyrosyl-3-(2-iminoimidazolidin-4-yl)seryl-3-(3-hexopyranosyl-2-iminoimidazolidin-4-yl)seryl-O-(diphenylacetyl)-seryl]] (cyclo(G[ξPhe(βξ-Me)]Y(X2)[ξEnduracididine(βξ-OH,4'ξ)][X1]S(Diphenylacetyl)); configuration not given here)",MIC Enterococcus faecium (GC 4557),Enterococcus sp.; strain GC 4557,32 µg/mL
same,MIC Streptococcus agalactiae (GC 4564),Streptococcus sp.; strain GC 4564,32 µg/mL
same,MIC Streptococcus pneumoniae (GC 4565),Streptococcus sp.; strain GC 4565,16 µg/mL
same,MIC Streptococcus pyogenes (ID-3187),Streptococcus sp.; strain ID-3187,32 µg/mL
same,MIC Coagulase Negative Staphylococcus (GC 4549),Staphylococcus sp.; strain GC 4549,64 µg/mL
same,MIC Coagulase Negative Staphylococcus (GC 4549),Staphylococcus sp.; [7],64 µg/mL
same,MIC Coagulase Negative Staphylococcus (ID-3941),Staphylococcus sp.,64 µg/mL
same,MIC Coagulase Negative Staphylococcus (ID-3941),Staphylococcus sp.; [2],64 µg/mL
"CC(c1ccccc1)C1NC(=O)CNC(=O)C(CO)NC(=O)C(C(O)C2CNC(=N)N2C2OC(CO)C(O)C(O)C2O)NC(=O)C(C(O)C2CNC(=N)N2)NC(=O)C(Cc2ccc(OC3OC(CO)C(OC4OC(CO)C(O)C(O)C4OCc4ccc(OCc5ccccc5)cc4)C(O)C3O)cc2)NC1=O (stereo not drawn) [Example 231b, Cyclo[glycyl-β-methylphenylalanyl-O-[4-O-[2-O-[4-(phenylmethoxy)benzyl]hexopyranosyl]-hexopyranosyl]tyrosyl-3-(2-iminoimidazolidin-4-yl)seryl-3-(3-hexopyranosyl-2-iminoimidazolidin-4-yl)serylseryl]]",MIC Streptococcus agalactiae (GC 4564),"Streptococcus sp.; Streptococcus agalactiae (GC 4564), 18 hours at 35° C.",1 to 8 µg/mL
same,MIC Streptococcus pneumoniae (GC 1894),"Streptococcus sp.; Streptococcus pneumoniae (GC 1894), 18 hours at 35° C.",<0.06 to 2 µg/mL
same,MIC Streptococcus pneumoniae (GC 4565),"Streptococcus sp.; Streptococcus pneumoniae (GC 4565), 18 hours at 35° C.",0.5 to 8 µg/mL
same,MIC Streptococcus pyogenes (GC 4563),"Streptococcus sp.; Streptococcus pyogenes (GC 4563), 18 hours at 35° C.",1 to 8 µg/mL
same,MIC Streptococcus agalactiae (GC 4564),Streptococcus sp.; [8],1 to 8 µg/mL
same,MIC Streptococcus pneumoniae (GC 1894),Streptococcus sp.; [8],<0.06 to 2 µg/mL
same,MIC Streptococcus pneumoniae (GC 4565),Streptococcus sp.; [8],0.5 to 8 µg/mL
same,MIC Streptococcus pyogenes (GC 4563),Streptococcus sp.; [8],1 to 8 µg/mL
same,MIC Coagulase Negative Staphylococcus (GC 6257),"Staphylococcus sp.; Coagulase Negative Staphylococcus (GC 6257), 18 hours at 35° C.",12 to 32 µg/mL

# From patent US8247211B2, “Glycopeptide antibiotics” (American Cyanamid Company, priority 2001, dated 2012)
